Data from patent publication US8247211B2, “Glycopeptide antibiotics” (American Cyanamid Company, priority 2001, dated 2012).
Converted amounts (≈) assume the structure as drawn.

How the values were obtained:
[1] = format: in vivo; conditions: mice, 20 mg/kg intravenously daily for 9 days, serum on day 10
Method: 20-day-old CD-1 mice were divided into a vehicle control group (5 mice) and a treatment group (5 mice). Samples of glycopeptide antibiotics were administered at 20 mg/kg intravenously daily for 9 days. Animals were necropsied on day 10 Sera were analyzed for BUN (blood urea nitrogen), creatinine, AST (aspartic aminotransferase), and ALT (alanine aminotransferase) by routine, standard, automated methods using an Hitachi 747 chemistry analyzer.

[2] = test system: Staphylococcus aureus-SMITH (GC 4543); assay: Acute lethal infection in mice (ED50); format: in vivo; conditions: female CD-1 mice, intraperitoneal challenge, intravenous dose 30 min. after infection, 7 day survival ratios
Method in brief: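 Median effective dose is calculated from 7-day survival ratios pooled across three separate tests. Mice (female CD-1) receive an intraperitoneal bacterial challenge in broth or hog gastric mucin, then intravenous drug 30 min later, five animals per dose level.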

[3] = Anatomic pathology (heart and kidney histopathology) in mice; format: in vivo, CD-1 mice; conditions: 20 mg/kg intravenously daily for 9 days, microscopic histopathology on day 10
Method in brief: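 Juvenile CD-1 mice (20 days old; 5 vehicle, 5 treated) received glycopeptide antibiotic 20 mg/kg i.v. daily for 9 days. Necropsied tissues formalin-fixed, paraffin-embedded, H&E stained and examined microscopically; findings graded slight to severe versus controls.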

Enterococcus sp. = assay: In vitro antibacterial evaluation: minimum inhibitory concentration (MIC), broth dilution method; format: cell-based; conditions: 18 hours at 35° C.
Method in brief: (§1)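 Susceptibility determined by NCCLS-recommended broth dilution (M7-A2), Muller-Hinton II […]. Concentration span 64-0.06 μg/mL, inoculum 5×10^5 CFU/mL. Isolates include strains resistant to methicillin, penicillin and/or vancomycin.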

Streptococcus sp. = assay: as above; format: cell-based; conditions: 18 hours at 35° C.
Method in brief: as §1

Escherichia coli = assay: as above; format: cell-based; conditions: 18 hours at 35° C.
Method in brief: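 NCCLS M7-A2 broth dilution with Mueller-Hinton II, testing 64-0.06 μg/mL antibiotic against 5×10^5 CFU/mL inocula. Test strains include recent methicillin-, penicillin- or vancomycin-resistant clinical isolates. MIC is the lowest concentration preventing growth.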

Staphylococcus sp. = assay: as above; format: cell-based; conditions: 18 hours at 35° C.
Method in brief: as §1

[4] = broth dilution, inoculum 5×10^5 CFU/mL

Compound: COc1ccc2cc(COCC3OC(OC4C(CO)OC(Oc5ccc(CC6NC(=O)C(C(C)c7ccccc7)NC(=O)CNC(=O)C(CO)NC(=O)C(CC7CNC(=N)N7C7OC(CO)C(O)C(O)C7O)NC(=O)C(CC7CNC(=N)N7)NC6=O)cc5)C(O)C4O)C(O)C(O)C3O)ccc2c1 (stereo not drawn) [Example 245, Cyclo[3-(2-iminoimidazolidin-4-yl)alanyl-3-(3-hexopyranosyl-2-iminoimidazolidin-4-yl)-alanylserylglycyl-β-methylphenylalanyl-O-[4-O-[6-O-[(6-methoxy-2-naphthyl)methyl]-hexopyranosyl)hexopyranosyl]tyrosyl]]
- Clinical Chemistry (Day 10) % of Control, BUN [1]: +160%
- median effective dose (ED50), Staphylococcus aureus-SMITH (GC 4543) [2]: 4 mg/kg
- Anatomical Pathology (Day 10), Heart [3]: 0
- Anatomical Pathology (Day 10), Kidney [3]: +++
- MIC Enterococcus avium (GC 4558) (Enterococcus sp.; Enterococcus avium (GC 4558)): 16 µg/mL (≈ 11.2 µM)
- MIC Enterococcus faecalis (ATCC 29212) (Enterococcus sp.; Enterococcus faecalis (ATCC 29212)): 32 µg/mL (≈ 22.3 µM)
- MIC Enterococcus faecalis (GC 2242) (Enterococcus sp.; Enterococcus faecalis (GC 2242)): 16 µg/mL (≈ 11.2 µM)
- MIC Enterococcus faecalis (GC 2691) (Enterococcus sp.; Enterococcus faecalis (GC 2691)): 32 µg/mL (≈ 22.3 µM)
- MIC Enterococcus faecalis (GC 3059) (Enterococcus sp.; Enterococcus faecalis (GC 3059)): 16 µg/mL (≈ 11.2 µM)
- MIC Enterococcus faecalis (GC 4552) (Enterococcus sp.; Enterococcus faecalis (GC 4552)): 16 µg/mL (≈ 11.2 µM)
- MIC Enterococcus faecalis (GC 4553) (Enterococcus sp.; Enterococcus faecalis (GC 4553)): 16 µg/mL (≈ 11.2 µM)
- MIC Enterococcus faecalis (GC 4554) (Enterococcus sp.; Enterococcus faecalis (GC 4554)): 32 µg/mL (≈ 22.3 µM)
- MIC Enterococcus faecalis (GC 6189) (Enterococcus sp.; Enterococcus faecalis (GC 6189)): 32 µg/mL (≈ 22.3 µM)
- MIC Enterococcus faecium (GC 2243) (Enterococcus sp.; Enterococcus faecium (GC 2243)): 16 µg/mL (≈ 11.2 µM)
- MIC Enterococcus faecium (GC 4556) (Enterococcus sp.; Enterococcus faecium (GC 4556)): 16 µg/mL (≈ 11.2 µM)
- MIC Enterococcus faecium (GC 4557) (Enterococcus sp.; Enterococcus faecium (GC 4557)): 4 µg/mL (≈ 2.79 µM)
- MIC Enterococcus faecalis (GC 2242) (Enterococcus sp.; [4]): 16 µg/mL (≈ 11.2 µM)
- MIC Enterococcus faecalis (GC 2691) (Enterococcus sp.; [4]): 32 µg/mL (≈ 22.3 µM)
- MIC Enterococcus faecalis (GC 3059) (Enterococcus sp.; [4]): 16 µg/mL (≈ 11.2 µM)
- MIC Streptococcus agalactiae (GC 4564) (Streptococcus sp.; Streptococcus agalactiae (GC 4564)): 4 µg/mL (≈ 2.79 µM)
- MIC Streptococcus pneumoniae (ATCC 6301) (Streptococcus sp.; Streptococcus pneumoniae (ATCC 6301)): 2 µg/mL (≈ 1.4 µM)
- MIC Streptococcus pneumoniae (GC 1894) (Streptococcus sp.; Streptococcus pneumoniae (GC 1894)): 1 µg/mL (≈ 0.698 µM)
- MIC Streptococcus pneumoniae (GC 4565) (Streptococcus sp.; Streptococcus pneumoniae (GC 4565)): 4 µg/mL (≈ 2.79 µM)
- MIC Streptococcus pyogenes (GC 4563) (Streptococcus sp.; Streptococcus pyogenes (GC 4563)): 4 µg/mL (≈ 2.79 µM)
- MIC Streptococcus agalactiae (GC 4564) (Streptococcus sp.; [4]): 4 µg/mL (≈ 2.79 µM)
- MIC Streptococcus pneumoniae (ATCC 6301) (Streptococcus sp.; [4]): 2 µg/mL (≈ 1.4 µM)
- MIC Streptococcus pneumoniae (GC 1894) (Streptococcus sp.; [4]): 1 µg/mL (≈ 0.698 µM)
- MIC Streptococcus pneumoniae (GC 4565) (Streptococcus sp.; [4]): 4 µg/mL (≈ 2.79 µM)
- MIC Streptococcus pyogenes (GC 4563) (Streptococcus sp.; [4]): 4 µg/mL (≈ 2.79 µM)
- MIC Escherichia coli (ATCC 25922) (Escherichia coli; Escherichia coli (ATCC 25922)): 64 µg/mL (≈ 44.6 µM)
- MIC Escherichia coli (GC 4559) (Escherichia coli; Escherichia coli (GC 4559)): 32 µg/mL (≈ 22.3 µM)
- MIC Escherichia coli (GC 4560) (Escherichia coli; Escherichia coli (GC 4560)): 4 µg/mL (≈ 2.79 µM)
- MIC Coagulase Negative Staphylococcus (GC 4547) (Staphylococcus sp.; Coagulase Negative Staphylococcus (GC 4547)): 4 µg/mL (≈ 2.79 µM)
- MIC Coagulase Negative Staphylococcus (GC 4548) (Staphylococcus sp.; Coagulase Negative Staphylococcus (GC 4548)): 2 µg/mL (≈ 1.4 µM)
- MIC Coagulase Negative Staphylococcus (GC 4549) (Staphylococcus sp.; Coagulase Negative Staphylococcus (GC 4549)): 1 µg/mL (≈ 0.698 µM)
- MIC Coagulase Negative Staphylococcus (GC 4551) (Staphylococcus sp.; Coagulase Negative Staphylococcus (GC 4551)): 8 µg/mL (≈ 5.58 µM)
- MIC Coagulase Negative Staphylococcus (GC 6257) (Staphylococcus sp.; Coagulase Negative Staphylococcus (GC 6257)): 2 µg/mL (≈ 1.4 µM)
- MIC Staphylococcus aureus (ATCC 29213) (Staphylococcus sp.; Staphylococcus aureus (ATCC 29213)): 4 µg/mL (≈ 2.79 µM)
- MIC Staphylococcus aureus (GC 1131) (Staphylococcus sp.; Staphylococcus aureus (GC 1131)): 8 µg/mL (≈ 5.58 µM)
- MIC Staphylococcus aureus (GC 3051) (Staphylococcus sp.; Staphylococcus aureus (GC 3051)): 4 µg/mL (≈ 2.79 µM)
- MIC Staphylococcus aureus (GC 3053) (Staphylococcus sp.; Staphylococcus aureus (GC 3053)): 4 µg/mL (≈ 2.79 µM)
- MIC Staphylococcus aureus (GC 4541) (Staphylococcus sp.; Staphylococcus aureus (GC 4541)): 4 µg/mL (≈ 2.79 µM)
- MIC Staphylococcus aureus (GC 4542) (Staphylococcus sp.; Staphylococcus aureus (GC 4542)): 4 µg/mL (≈ 2.79 µM)
- MIC Staphylococcus aureus (GC 4544) (Staphylococcus sp.; Staphylococcus aureus (GC 4544)): 8 µg/mL (≈ 5.58 µM)
- MIC Staphylococcus aureus (GC 4545) (Staphylococcus sp.; Staphylococcus aureus (GC 4545)): 4 µg/mL (≈ 2.79 µM)
- MIC Staphylococcus aureus-SMITH (GC 4543) (Staphylococcus sp.; Staphylococcus aureus-SMITH (GC 4543)): 4 µg/mL (≈ 2.79 µM)
- MIC Staphylococcus haemolyticus (GC 4546) (Staphylococcus sp.; Staphylococcus haemolyticus (GC 4546)): 4 µg/mL (≈ 2.79 µM)
